The test system of assay [1] is primary human T-cells. As to the kind of experiment: T-cell proliferation assay (CellTiter-Glo). The conditions noted are these: CD3 condition; for Emax proliferation (% activation): 5 days, 20 μM reference compound A1 = 100%; for EC50: Homo sapiens, T-cell, 120 h, proliferation after 5 days, CellTiter-Glo, read-out: Tcell Proliferation CD3 EC50. It is filed as cell-based. Here is the method:
For coating of plates, PBS++ only or PBS++ with CD3 antibody (concentration depending on donor and determined by CD3 titrations) is added 100 μl/well to Poly-D Lysine coated 96-well plates. Plates are sealed and incubated at room temperature for 3 hours on a table-top rocking platform. After incubation, plates are washed once with PBS−− and filled with 40 μl/well culture medium only. Compounds are then added (see next section) to medium only plates. After 3 hours of culturing the T-cells, cells are filtered through a cell strainer (Miltenyi Biotech, #130-041-407), counted again and concentration is adjusted to 1.25 Mio/ml.
Cells are then seeded 80 μl/well to the 40 μl/well including dispensed compounds according to plate layout. By adding cells, compounds are further diluted 1:3, and resulting in 100 k cells/120 μl/well. After 48 hours 40 μl of supernatant is collected carefully from the top while not disturbing the cells. Cells are assessed for proliferation 5 days later by measuring […] using CellTiterGlo (Promega).
Compounds were added in a 5 or 6 pt dose response with the Tecan D300e Digital Dispenser, all conditions 3 times more concentrated than the end-concentration, since cells are added afterwards (80 μl cells to 40 μl prepared medium with treatment). […] The positive control was the reference compound A1 that was added in a dose response as well, additionally to 3 wells of only 20 μM representing the positive stimulator control. All wells were normalized with DMSO to a final concentration of 0.6% (0.2% end-concentration).
After 5 days, for detection of ATP which is directly proportional to the number of cells present per well, the CellTiter-Glo® 2.0 Reagent is used. After visual control for toxicity or precipitations of the tested compounds, the plates are equilibrated to room temperature for 45 minutes. CellTiter-Glo® 2.0 Reagent is equilibrated to room temperature as well. After equilibration, an equal amount of CellTiter-Glo reagent is added to the cells (80 μl/well) with an electronic multichannel pipette. Plates are placed on a rocking platform for 15 minutes at room temperature. After incubation, the bottom of the plates is sealed with backing tape. Luminescence is measured with PHERAstar FSX (interval time 0.5 sec, gain 3000, focal height 15 mm) and exported as CSV file for analysis in Genedata screener.
Calculations and Data Reporting CD3 and PBS plates were analysed separately in Genedata Screener using Roche Normalization PCT_POS_CTRL with DMSO set as Neutral Control and 20 μM of the reference compound A1 set as Stimulator Control/100%.
For CD3 conditions EC50 and Emax of the fitted sigmoidal curve were reported. If no curve could be fitted, the EC50 was reported as blank field and the Emax was based on individual data points. […] Compounds which activate unstimulated cells (see IL2 measurements) or compounds which negatively affected viability were flagged.
A general note: Cellular ATP, detected with luciferase, serves as a proxy for viable cell number.

For assay [2], the target named is DGKzeta (hDGKzeta(1-928)-N-His) (Homo sapiens (Human), UniProt Q13574). As to the kind of experiment: In vitro DGK inhibition assay, ADP-Glo (in house), DGKzeta. The class given is biochemical. Conditions: DLG liposomes, 50 μM ATP, 2 nM enzyme, 1 hour reaction. As to the method:
(§1) DGK α and ζ kinases use ATP to phosphorylate the substrate 1,2-dilauroyl-sn-glycerol (DLG, incorporated in the liposomes). ATP is converted to ADP as a result of this enzymatic reaction.
(§2) After the kinase reaction, an ATP-depletion reagent is added to terminate the kinase reaction and deplete any remaining ATP, leaving only ADP. Second, a detection reagent is added to simultaneously convert ADP to ATP and allow the newly synthesized ATP to be converted to light using a coupled luciferase/luciferin reaction.
(§3) Purification of both enzymes was performed as previously described by Takahashi et al., PeerJ, 2018 (Takahashi, D.; Sakane, F. Expression and purification of human diacylglycerol kinase alpha from baculovirus-infected insect cells for structural studies. PeerJ 2018, 6, No. e5449).
(§4) A concentrated liposome solution was prepared in assay buffer without DTT and BSA: 2 mM of DLG in 21 mM of total liposome (2 mM DLG/8 mM PS/11 mM PC). The reaction mixtures contain the assay buffer with a final DLG concentration of 125 uM ATP concentrations of 25 μM (for DGKA assay) or 50 μM (for DGKZ assay). The reactions were started by addition of DGK α and ζ kinases at 4 nM and 2 nM final concentrations, respectively. After 1 hour reaction, the amount of ADP formed was detected with the ADP-Glo kinase assay (Promega) according to the manufacturer instructions. Compounds were added in 11-points dose response, starting at […], 1:3 dilutions, with a final DMSO concentration of 2%. The multidrop combi was used as a liquid handler and luminescence was read with 0.5 s by the envision reader (PE).
On the technique in general: ADP-Glo turns the ADP formed in a reaction into a luminescent signal.

Assay [3] concerns primary human T-cells. Put plainly: IL2 secretion measurements in CD3-stimulated T-cells. It is filed as cell-based. Conditions: CD3 condition; for Emax IL2 (% activation): 24 hours, 20 μM reference compound A1 = 100%; for EC50: Homo sapiens, T-cell, IL2 secretion after 24 hours, read-out: Tcell IL2 CD3 EC50. As to the method:
As readouts for T-cell activation, 1L2 secretion after 24 hours and proliferation after 5 days was measured. Increases in 1L2 secretion and proliferation upon compound treatment were assessed as the % of the maximum of reference compound A1. WO 2016/139181 discloses reference compound A1 as example 70. As a counter screen and to make sure that no unwanted TCR-independent activation was triggered, PBS conditions were run for all compounds.
Expanded primary human T-cells were thawed and cultured in RPMI 1640 (Gibco, #61870-010)+5% human serum (HS, Sigma, #H3667)+1 mM Sodium Pyruvate (Gibco, #11360-039)+50 μM 2-mercaptoethanol (Gibco, #31350-010) and 1× Pen-Strep (Life Technologies, #15140122) medium at density of 2 Mio/ml for 3 hours in 5% CO2, 37° C. and 95% humidity. For coating of plates, […] or PBS++ with CD3 antibody (concentration depending on donor and determined by CD3 titrations) was added 100 μl/well to Poly-D Lysine coated 96-well plates. Plates were sealed and incubated at room temperature for 3 hours on a table-top rocking platform. After incubation, plates were washed once with PBS−− and filled with 40 μl/well culture medium only. Compounds were then added (see next section) to medium only plates. After 3 hours of culturing the T-cells, cells were filtered through a cell strainer (Miltenyi Biotech, #130-041-407), counted again and concentration was adjusted to 1.25 Mio/ml.
Cells were then seeded 80 μl/well to the 40 μl/well including dispensed compounds according to plate layout. By adding cells, compounds were further diluted 1:3, and resulting in 100 k cells/120 μl/well. After 24 hours 40 μl of supernatant was collected carefully from the top while not disturbing the cells and transferred into a round bottom 96 well plate. Collected and frozen supernatant was used for detection of IL2 using the IL-2 Human ProQuantum Immunoassay Kit (Invitrogen) or using the Human IL-2 ELISA Kit (Thermo Fisher).
Compounds were added in a 5 or 6 pt dose response with the Tecan D300e Digital Dispenser, all conditions 3 times more concentrated than the end-concentration, since cells are added afterwards (80 μl cells to 40 μl prepared medium with treatment). The DR was starting at 20 μM or 10 μM final top concentration and a dilution factor of 3.333. The positive control was the reference compound A1 that was added in a dose response as well, additionally to 3 wells of only 20 μM representing the positive stimulator control. All wells were normalized with DMSO to a final concentration of 0.6% (0.2% end-concentration).
The immunoassay is done following the manufacturer's manual (Invitrogen, #A35603). Additional information: For the immunoassay, MicroAmp™ EnduraPlate™ Optical 384-Well plates are used. Frozen supernatant is thawed and centrifuged for 5 minutes at 1000×g, both steps at 4° C. After centrifugation, required sample amount is taken from the top, and in a separate LightCycler V-bottom plate (working plate) diluted with assay dilution buffer, dilution factor depending on the PBS or CD3 condition but at least 1:3. IL-2 standard and blanks are prepared in the same V-bottom plate, standard with a range of […] (extended version). After preparation, 5 μl of sample dilutions or standard/blanks are transferred to the optical 384-well plate (assay plate) and the 10 μl reaction protocol is being followed. For measurement, the QuantStudio 12K Flex system is used. Raw data is extracted and IL-2 concentrations are calculated with the Thermo Fisher online app (apps.thermofisher.com/apps/proquantum).
ELISA is done following the manufacturer's manual (Thermo Fisher Scientific, #88-7025-88). Additional information: For the ELISA Nunc MaxiSorp 96 well plates are used. Frozen supernatant is thawed and centrifuged for 5 minutes at 1000×g, both steps at 4° C. […]

In assay [4] the target is DGKalpha (hDGKalpha(1-735)-N-His) (Homo sapiens (Human), UniProt P23743). Put plainly: In vitro DGK inhibition assay, ADP-Glo (in house), DGKalpha. It is filed as biochemical. Conditions: DLG liposomes, 25 μM ATP, 4 nM enzyme, 1 hour reaction. Here is the method:
as §1, §2, §3, §4

Each structure is given as a SMILES string. A value given as a limit tells only on which side of the number the result lay.

Sequence of DGKalpha (hDGKalpha(1-735)-N-His) (P23743 whole entry): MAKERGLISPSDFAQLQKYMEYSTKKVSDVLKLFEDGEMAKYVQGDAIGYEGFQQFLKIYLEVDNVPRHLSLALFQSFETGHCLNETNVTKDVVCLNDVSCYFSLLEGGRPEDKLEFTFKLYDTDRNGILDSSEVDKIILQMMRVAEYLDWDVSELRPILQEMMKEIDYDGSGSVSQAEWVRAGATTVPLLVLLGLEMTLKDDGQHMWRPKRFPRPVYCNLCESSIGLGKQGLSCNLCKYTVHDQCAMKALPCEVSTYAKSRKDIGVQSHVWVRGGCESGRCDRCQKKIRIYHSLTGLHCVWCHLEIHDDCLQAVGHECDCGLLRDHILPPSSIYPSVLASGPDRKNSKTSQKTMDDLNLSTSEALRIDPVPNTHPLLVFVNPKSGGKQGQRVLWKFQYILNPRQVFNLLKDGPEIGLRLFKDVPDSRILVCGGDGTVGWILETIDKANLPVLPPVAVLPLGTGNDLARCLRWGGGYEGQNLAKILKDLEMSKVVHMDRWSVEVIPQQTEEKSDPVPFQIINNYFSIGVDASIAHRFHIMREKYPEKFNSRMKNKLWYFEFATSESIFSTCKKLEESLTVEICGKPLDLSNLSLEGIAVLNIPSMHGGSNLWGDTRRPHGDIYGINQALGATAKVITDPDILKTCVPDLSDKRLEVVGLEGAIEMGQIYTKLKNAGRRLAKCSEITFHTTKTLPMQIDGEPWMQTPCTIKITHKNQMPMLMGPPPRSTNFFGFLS
Sequence of DGKzeta (hDGKzeta(1-928)-N-His) (Q13574 whole entry): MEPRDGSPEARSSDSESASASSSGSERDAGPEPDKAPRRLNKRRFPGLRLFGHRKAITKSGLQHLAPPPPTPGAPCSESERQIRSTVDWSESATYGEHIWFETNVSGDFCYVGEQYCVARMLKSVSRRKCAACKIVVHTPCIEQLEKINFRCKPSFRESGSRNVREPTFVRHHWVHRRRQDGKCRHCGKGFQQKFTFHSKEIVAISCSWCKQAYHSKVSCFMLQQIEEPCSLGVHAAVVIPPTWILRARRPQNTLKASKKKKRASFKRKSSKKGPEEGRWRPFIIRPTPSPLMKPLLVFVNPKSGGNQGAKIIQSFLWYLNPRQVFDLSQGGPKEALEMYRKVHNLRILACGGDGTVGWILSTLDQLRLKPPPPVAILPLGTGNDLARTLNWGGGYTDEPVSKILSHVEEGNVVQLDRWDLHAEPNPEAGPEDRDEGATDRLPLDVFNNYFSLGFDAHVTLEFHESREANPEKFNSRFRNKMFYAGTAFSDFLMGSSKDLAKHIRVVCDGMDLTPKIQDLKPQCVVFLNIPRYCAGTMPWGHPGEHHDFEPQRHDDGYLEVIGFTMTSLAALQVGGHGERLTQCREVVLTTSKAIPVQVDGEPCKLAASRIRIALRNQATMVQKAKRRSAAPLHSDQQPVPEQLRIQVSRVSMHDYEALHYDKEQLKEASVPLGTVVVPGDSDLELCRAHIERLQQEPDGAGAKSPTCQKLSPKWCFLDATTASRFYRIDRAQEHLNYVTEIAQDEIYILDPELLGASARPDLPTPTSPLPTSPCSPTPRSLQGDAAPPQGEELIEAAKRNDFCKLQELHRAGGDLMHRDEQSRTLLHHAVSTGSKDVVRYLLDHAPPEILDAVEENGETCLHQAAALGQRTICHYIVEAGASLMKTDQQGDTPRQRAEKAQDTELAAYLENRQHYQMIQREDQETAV

The term IC50 denotes the midpoint of a concentration-inhibition curve. A low value points to greater potency. Turning to `COC(=O)N1CC2CC(c3cnnc(-c4cc5c(cc4F)S(=O)(=O)C[C@H](N)C(=O)N5Cc4ccc(Cl)cc4)n3)(C2)C1` [Example 18, methyl 1-[3-[(3R)-3-amino-5-[(4-chlorophenyl)methyl]-8-fluoro-1,1,4-trioxo-2,3-dihydro-1λ6,5-benzothiazepin-7-yl]-1,2,4-triazin-5-yl]-3-azabicyclo[3.1.1]heptane-3-carboxylate], in assay [1], the “Emax proliferation (% activation)” value came out at 79 % activation and the EC50 is 2.72 µM. In assay [2], the IC50 turned out to be 1.13 µM. Moreover, in assay [3], the “Emax IL2 (% activation)” value is 61 % activation and the EC50 came to 1.83 µM. The molecule also registered an IC50 in assay [4] of 4.59 µM.

`CS(=O)(=O)C(CCCl)c1cnnc(-c2cc3c(cc2F)S(=O)(=O)C[C@H](N)C(=O)N3Cc2ccc(Cl)cc2)n1` (stereo partly drawn) [Example 20, (3R)-3-amino-7-[5-(3-chloro-1-methylsulfonyl-propyl)-1,2,4-triazin-3-yl]-5-[(4-chlorophenyl)methyl]-8-fluoro-1,1-dioxo-2,3-dihydro-1λ6,5-benzothiazepin-4-one]: in assay [1], the “Emax proliferation (% activation)” value worked out at 87 % activation and the EC50 was found to be 9.11 µM. Also, the IC50 in assay [2] came to 1.73 µM. Further, in assay [3], the “Emax IL2 (% activation)” value came out at 39 % activation and the EC50 is more than 10 µM. This molecule also came in with an IC50 in assay [4] of 1.66 µM.

Regarding `N[C@H]1CS(=O)(=O)c2cc(F)c(-c3cncc(N4CCOCC4)c3)cc2N(Cc2ccc(-c3noc(C(F)(F)F)n3)cc2)C1=O` [Example 21, (3R)-3-amino-8-fluoro-1,1-diketo-7-(5-morpholino-3-pyridyl)-5-[4-[5-(trifluoromethyl)-1,2,4-oxadiazol-3-yl]benzyl]-2,3-dihydro-1λ6,5-benzothiazepin-4-one], in assay [1], the “Emax proliferation (% activation)” value turned out to be 140 % activation and the EC50 was determined as 3.76 µM. The molecule also had an IC50 in assay [2] of 8.77 µM. In assay [3], the “Emax IL2 (% activation)” value came out at 131 % activation and the EC50 came out at 6.78 µM. Besides, 31 µM corresponded to half-maximal inhibition in assay [4] (IC50).

For `N[C@H]1CS(=O)(=O)c2cc(F)c(-c3cncc(C(F)(F)F)c3)cc2N(Cc2ccc(-c3noc(C(F)(F)F)n3)cc2)C1=O` [Example 24, (3R)-3-amino-8-fluoro-1,1-diketo-5-[4-[5-(trifluoromethyl)-1,2,4-oxadiazol-3-yl]benzyl]-7-[5-(trifluoromethyl)-3-pyridyl]-2,3-dihydro-1λ6,5-benzothiazepin-4-one], in assay [1], the “Emax proliferation (% activation)” value is 141 % activation. Moreover, the EC50 in assay [1] amounted to 0.699 µM; in assay [3] it was 1.94 µM. Further, the values for the IC50 in assay [2] and in assay [4] were 23.7 µM and 55.2 µM, respectively. Besides, the “Emax IL2 (% activation)” value in assay [3] is 235 % activation.

Take `COc1ccc(-c2ccc(CN3C(=O)[C@@H](N)CS(=O)(=O)c4cc(F)c(-c5cncc(Cl)c5)cc43)cc2)cc1` [Example 27, (3R)-3-amino-7-(5-chloro-3-pyridyl)-8-fluoro-5-[[4-(4-methoxyphenyl)phenyl]methyl]-1,1-dioxo-2,3-dihydro-1λ6,5-benzothiazepin-4-one]: the “Emax proliferation (% activation)” value in assay [1] came out at 111 % activation. Besides, the EC50 in assay [1] was found to be 0.308 µM; in assay [3], 0.997 µM. In addition, the concentration for half-maximal inhibition (IC50) was found to be 6.5 µM in assay [2] and 41.2 µM in assay [4]. Further, the “Emax IL2 (% activation)” value in assay [3] came out at 243 % activation.

For the molecule `COc1ccc(-c2ccc(CN3C(=O)[C@@H](N)CS(=O)(=O)c4cc(F)c(-c5ccc(C(C)C)nc5)cc43)cc2)cc1` [Example 29, (3R)-3-amino-8-fluoro-7-(6-isopropyl-3-pyridyl)-5-[[4-(4-methoxyphenyl)phenyl]methyl]-1,1-dioxo-2,3-dihydro-1λ6,5-benzothiazepin-4-one], in assay [1], the “Emax proliferation (% activation)” value stood at 38 % activation and the EC50 was determined as 0.071 µM. The same molecule showed a concentration for half-maximal inhibition (IC50) in assay [2] of 13.6 µM. Moreover, in assay [3], the “Emax IL2 (% activation)” value amounted to 110 % activation and the EC50 turned out to be 0.453 µM. The same molecule had a 50% inhibitory concentration (IC50) in assay [4] of 18.8 µM.

The record behind these values is patent publication US20250236617A1, “BICYCLIC TETRAHYDROTHIAZEPINE DERIVATIVES” (Hoffmann-La Roche Inc., priority 2022, published 2025).
